Results published in the NIST ThermoML archive (doi:10.1016/j.jct.2009.01.008).
Numbers after ± are expanded uncertainties.

Legend:
[1] = xn = mol fraction of the nth substance listed; settings: 101 kPa, Liquid, Linear variable-path acoustic interferometer
[2] = 101 kPa, Liquid, Linear variable-path acoustic interferometer
[3] = refractive index (Na D-line) (dimensionless); settings: 298.15 K; 101.33 kPa; Liquid

CC(C)CC(C)(C)C [2,2,4-trimethylpentane] + Cc1ccccc1
speed of sound [m/s], [1]
Settings | 298.15 K | 308.15 K | 318.15 K | 328.15 K
x2 = 0 | 1082.8 ± 1.8 | 1041.1 ± 1.8 | 1000 ± 1.8 | 958.4 ± 1.8
x2 = 0.07776 | 1092.7 ± 1.8 | 1051.1 ± 1.8 | 1009.9 ± 1.8 | 969.3 ± 1.7
x2 = 0.1405 | 1101.3 ± 1.8 | 1059.7 ± 1.8 | 1018.5 ± 1.7 | 977.9 ± 1.7
x2 = 0.2059 | 1110.8 ± 1.8 | 1069.2 ± 1.7 | 1028.1 ± 1.7 | 987.5 ± 1.7
x2 = 0.2671 | 1120.3 ± 1.8 | 1078.7 ± 1.7 | 1037.6 ± 1.7 | 997 ± 1.7
x2 = 0.3385 | 1132.3 ± 1.7 | 1090.7 ± 1.7 | 1049.5 ± 1.7 | 1008.8 ± 1.7
x2 = 0.3976 | 1143 ± 1.7 | 1101.3 ± 1.7 | 1060.1 ± 1.7 | 1019.4 ± 1.7
x2 = 0.4724 | – | 1115.6 ± 1.7 | 1074.3 ± 1.7 | –
x2 = 0.5328 | 1170 ± 1.7 | – | 1086.9 ± 1.7 | 1046.1 ± 1.7
x2 = 0.5966 | 1184.2 ± 1.7 | 1142.3 ± 1.7 | 1100.9 ± 1.7 | 1060 ± 1.6
x2 = 0.6699 | 1201.9 ± 1.7 | 1159.9 ± 1.7 | 1118.4 ± 1.7 | 1077.5 ± 1.6
x2 = 0.7302 | 1217.5 ± 1.7 | 1175.4 ± 1.7 | – | 1092.8 ± 1.6
x2 = 0.7895 | – | – | 1150.3 ± 1.7 | –
x2 = 0.8001 | 1237.5 ± 1.7 | 1195.3 ± 1.7 | 1153.6 ± 1.7 | 1112.4 ± 1.6
x2 = 0.8681 | 1258.4 ± 1.7 | 1216.1 ± 1.7 | 1174.2 ± 1.7 | 1132.8 ± 1.6
x2 = 0.8691 | 1259 ± 1.7 | – | – | –
x2 = 0.9539 | 1288.1 ± 1.7 | 1245.4 ± 1.7 | 1203.3 ± 1.7 | –

COC(C)(C)C [2-methoxy-2-methylpropane]
[2]
Settings | speed of sound [m/s]
298.15 K | 1036.4 ± 1.6
308.15 K | 990.8 ± 1.5
318.15 K | 945.3 ± 1.5

Settings | refractive index
[3] | 1.36648 ± 0.00012

COC(C)(C)C [2-methoxy-2-methylpropane] + CC(C)CC(C)(C)C
speed of sound [m/s], [1]
Settings | 298.15 K | 308.15 K | 318.15 K | 328.15 K
x1 = 0.05551 | 1079.2 ± 1.8 | 1037.5 ± 1.8 | – | –
x1 = 0.08857 | 1077.1 ± 1.8 | – | 993.7 ± 1.7 | 952.7 ± 1.7
x1 = 0.1305 | 1074.8 ± 1.8 | 1032.8 ± 1.7 | 991.2 ± 1.7 | –
x1 = 0.1971 | 1071 ± 1.7 | 1028.7 ± 1.7 | 986.9 ± 1.7 | 945.5 ± 1.7
x1 = 0.2599 | 1067.4 ± 1.7 | 1024.9 ± 1.7 | 983 ± 1.7 | 941.5 ± 1.7
x1 = 0.3284 | 1063.8 ± 1.7 | 1021 ± 1.7 | 978.9 ± 1.7 | –
x1 = 0.3315 | – | – | – | 936.4 ± 1.7
x1 = 0.4078 | 1059.5 ± 1.7 | 1016.4 ± 1.7 | 973.8 ± 1.7 | –
x1 = 0.4756 | 1056.1 ± 1.7 | 1012.7 ± 1.7 | – | –
x1 = 0.5629 | 1052 ± 1.7 | 1008.2 ± 1.6 | 964.9 ± 1.6 | 922.2 ± 1.6
x1 = 0.6184 | 1049.5 ± 1.6 | – | – | –
x1 = 0.6831 | 1046.7 ± 1.6 | 1002.5 ± 1.6 | 958.7 ± 1.6 | 915.2 ± 1.6
x1 = 0.7456 | 1044.1 ± 1.6 | 995.5 ± 1.6 | 955.6 ± 1.6 | –
x1 = 0.7644 | 1043.4 ± 1.6 | – | – | –
x1 = 0.8143 | 1041.7 ± 1.6 | – | – | –
x1 = 0.8155 | 1041.5 ± 1.6 | 996.6 ± 1.6 | 952.4 ± 1.6 | –
x1 = 0.8675 | 1039.8 ± 1.6 | 994.7 ± 1.6 | 950 ± 1.5 | –
x1 = 0.9376 | 1037.8 ± 1.6 | 992.5 ± 1.5 | 947.4 ± 1.5 | –
x1 = 1 | 1036.4 ± 1.6 | 990.8 ± 1.5 | 945.3 ± 1.5 | –

CC(C)CC(C)(C)C [2,2,4-trimethylpentane]
[2]
Settings | speed of sound [m/s]
298.15 K | 1082.8 ± 1.8
308.15 K | 1041.1 ± 1.8
318.15 K | 1000 ± 1.8
328.15 K | 958.4 ± 1.8

Settings | refractive index
[3] | 1.38905 ± 0.00021

Cc1ccccc1 [toluene]
[2]
Settings | speed of sound [m/s]
298.15 K | 1305.4 ± 1.7
308.15 K | 1262.6 ± 1.7
318.15 K | 1220.3 ± 1.7
328.15 K | 1178.6 ± 1.6

Settings | refractive index
[3] | 1.4941 ± 0.0001

CC(C)CC(C)(C)C [2,2,4-trimethylpentane] + COC(C)(C)C
[1], x2 = 0
Settings | speed of sound [m/s]
298.15 K | 1082.8 ± 1.8
308.15 K | 1041.1 ± 1.8
318.15 K | 1000 ± 1.8
328.15 K | 958.4 ± 1.8

Cc1ccccc1 [toluene] + CC(C)CC(C)(C)C
[1], x1 = 1
Settings | speed of sound [m/s]
298.15 K | 1305.4 ± 1.7
308.15 K | 1262.6 ± 1.7
318.15 K | 1220.3 ± 1.7
328.15 K | 1178.6 ± 1.6

COC(C)(C)C [2-methoxy-2-methylpropane] + Cc1ccccc1
speed of sound [m/s], [1]
Settings | 298.15 K | 308.15 K | 318.15 K | 328.15 K
x1 = 0.1021 | 1277.4 ± 1.7 | 1234.5 ± 1.7 | 1192 ± 1.6 | 1149.9 ± 1.6
x1 = 0.2035 | 1250 ± 1.7 | 1206.7 ± 1.6 | 1163.9 ± 1.6 | 1121.6 ± 1.6
x1 = 0.2591 | 1234.8 ± 1.7 | 1191.3 ± 1.6 | 1148.5 ± 1.6 | 1106.1 ± 1.6
x1 = 0.3321 | 1215.2 ± 1.7 | 1171.6 ± 1.6 | 1128.4 ± 1.6 | 1086.2 ± 1.6
x1 = 0.4008 | 1196.7 ± 1.6 | 1152.9 ± 1.6 | 1109.5 ± 1.6 | 1066.9 ± 1.6
x1 = 0.4665 | – | – | – | 1049.4 ± 1.6
x1 = 0.5323 | – | – | – | 1030.2 ± 1.6
x1 = 0.5894 | 1145.8 ± 1.6 | 1101.5 ± 1.6 | 1057.6 ± 1.6 | –
x1 = 0.664 | 1125.8 ± 1.6 | 1081.2 ± 1.6 | 1037 ± 1.6 | –
x1 = 0.7257 | – | – | 1020.4 ± 1.6 | 976.5 ± 1.5
x1 = 0.7956 | – | 1045.7 ± 1.6 | 1001 ± 1.5 | 958.4 ± 1.5
x1 = 0.8643 | 1072.3 ± 1.6 | 1027.1 ± 1.6 | 982.4 ± 1.5 | –
x1 = 0.9025 | 1062.2 ± 1.6 | 1016.8 ± 1.6 | 971.6 ± 1.5 | –
x1 = 1 | 1036.4 ± 1.6 | 990.8 ± 1.5 | 945.3 ± 1.5 | –

Cc1ccccc1 [toluene] + COC(C)(C)C
[1], x2 = 0
Settings | speed of sound [m/s]
298.15 K | 1305.4 ± 1.7
308.15 K | 1262.6 ± 1.7
318.15 K | 1220.3 ± 1.7
328.15 K | 1178.6 ± 1.6
